Reference: patent publication US7988972B2, “Immunoreactive peptides from Epstein-Barr virus” (Ortho-Clinical Diagnostics, Inc., priority 1993, dated 2011)

Tests used:
[1] = system: antibodies to peptides 50.10 (EA-D) and 17.1 (EA-R) in sequential sera; test: IgG ELISA on sequential sera of a patient with acute infectious mononucleosis; format: binding, human; details: sera at 1.20 dilution, (+) >0.25
Description: The early antigen D-R transition was followed in a patient during a course of acute infectious mononucleosis. Antibodies to peptides 50.10 (EA-D) and 17.1 (EA-R) were detected by ELISAs on specimens collected over a six month duration. […] Therefore, the peptides of the invention are useful for monitoring the course of EBV-associated disease in a patient.

[2] = system: EA reactive antibody (IgG) in infectious mononucleosis (IM) sera; test: ELISA, EA peptides with EBV infectious mononucleosis sera; format: binding, human; details: for ELISA result, peptides with and without extensions: EA positive EBV IM acute serum; for O.D.: 420 nm
Method: ELISA. The ELISA for measuring specific antibodies to p17, p50 or to the synthetic peptides was performed as previously described in detail (Luka et al., J. Immunol. Methods, 67:145-156, 1984). Aliquots of different antigen concentrations were diluted in 0.5M Na2CO3 buffer, pH 9.5, added to wells in polystyrene microtiter plates (Linbro) and the plates incubated overnight at 4° C. Following this incubation period, the plates were washed 5× with Tris-HCl, pH 7.4, containing 0.05% Tween 20, 50 mM NaCl and 100 mg per liter albumin (Sigma) and dried for 20 minutes at room temperature. The plates were screened with different anti-EA-R or EA-D antibody positive human sera and the monoclonal antibody to p17 or p50 to identify the optimal concentration of antigen to be used in the serological studies. Alkaline-phosphatase-labelled goat anti-human IgG (Sigma) or goat anti-mouse IgG (Sigma) was used as the indicator system.
For the testing of human sera for antibodies to native p17, p50 or to the synthetic peptides, sera were diluted 1:10 in ELISA buffer, added in 0.1 ml volumes to wells coated with optimal concentrations of antigen and the plates were incubated for 60 minutes at room temperature. After 4 washes with ELISA buffer, 100 μl of alkaline phosphatase-labelled goat anti-human IgG in ELISA buffer were added to each well and the plates were incubated at room temperature for 1 hour. Following four more washes in buffer, the enzyme reaction was performed by dissolving 1 mg per ml of Sigma alkaline phosphatase substrate in 1M diethanolamine buffer, pH 10.4, containing 1 mM MgCl2 and 0.1 mM ZnCl2, and 100 μl of the mixture was then added to each well. The reaction was allowed to proceed for 30 minutes at 37° C. and then the plates were screened directly with a microplate reader, TITERTEK MULTISKAN MC (Flow), at 420 nm. Readings above 0.1 which was 2× the background noted with antibody-negative sera were considered positive reactions.
When the entire 50.10 peptide was tested with 1M sera, 24/32 or 75% of the sera contained EA-D reactive antibody (IgG) (Table 4).
Serological reactivity of EA peptides p17.1 and p50.1 which contained additional amino acids on their amino and carboxy termini was tested on EBV IM acute sera which was EA positive. The ELISA results shown in Table 5 indicate that the additional amino acids improved reactivity for both EA peptides.
Immunofluorescence assays (IFA) were performed as described by Henle, et al. (Int. J. Cancer, 8:272-282, 1971). Western blot analysis was done by methods commonly used in the art (See for example, Coligan, et al., Current Protocols in Immunology, Wiley Interscience, 1991, Unit 12). Samples of EBV-infected cell lysates (P3HR-1) were tested with human whole antiserum from positive humans (Pearson, et al., Virology, 160:151-161, 1987). A comparison was made between EA serology by IFA, using the EA-D 50.1 peptide antisera, and ELISA serology using 50.1 peptide (see Example 2).

[3] = 32 IM sera, values >0.5 positive (O.D. 420 nm)

ETFTETWNRFITHTE [p17.1, synthetic peptide from 17 Kd early antigen (EA-R) region of EBV]
IgG ELISA O.D. reading ([1]; serum no. 9817, May 26, 1988): 0.158
IgG ELISA O.D. reading ([1]; serum no. 9820, May 31, 1988): 0.106
IgG ELISA O.D. reading ([1]; serum no. 9829, Jun. 07, 1988): 0.135
IgG ELISA O.D. reading ([1]; serum no. 9941, Jun. 20, 1988): 0.169
IgG ELISA O.D. reading ([1]; serum no. 9983, Jun. 27, 1988): 0.645
IgG ELISA O.D. reading ([1]; serum no. 10064, Jul. 18, 1988): 0.842
IgG ELISA O.D. reading ([1]; serum no. 10237, Aug. 29, 1988): 0.260
IgG ELISA O.D. reading ([1]; serum no. 10271, Sep. 20, 1988): 0.231
IgG ELISA O.D. reading ([1]; serum no. 10488, Oct. 21, 1988): 0.217
IgG ELISA O.D. reading ([1]; serum no. 10546, Nov. 15, 1988): 0.193
% Positive [2, 3]: 38%
IM sera positive / tested [2, 3]: 12/32
ELISA result, peptides with and without extensions ([2]; sample no. 2241): 0.282
ELISA result, peptides with and without extensions ([2]; sample no. 12498): 0.637
ELISA result, peptides with and without extensions ([2]; sample no. 12836): 0.692
SCORE ([2]; IM serum sample no. 2241): − (Values >0.5 were considered positive (O.D. readings at 420 nm).)
SCORE ([2]; IM serum sample no. 11984): + (Values >0.5 were considered positive (O.D. readings at 420 nm).)
O.D. ([2]; IM serum sample no. 11984): 0.542
SCORE ([2]; IM serum sample no. 12005): + (Values >0.5 were considered positive (O.D. readings at 420 nm).)
O.D. ([2]; IM serum sample no. 12005): 0.981
SCORE ([2]; IM serum sample no. 12288): + (Values >0.5 were considered positive (O.D. readings at 420 nm).)
O.D. ([2]; IM serum sample no. 12288): 0.700
SCORE ([2]; IM serum sample no. 12407): + (Values >0.5 were considered positive (O.D. readings at 420 nm).)
O.D. ([2]; IM serum sample no. 12407): 0.787
SCORE ([2]; IM serum sample no. 12409): + (Values >0.5 were considered positive (O.D. readings at 420 nm).)
O.D. ([2]; IM serum sample no. 12409): 0.592
SCORE ([2]; IM serum sample no. 12418): − (Values >0.5 were considered positive (O.D. readings at 420 nm).)
O.D. ([2]; IM serum sample no. 12418): 0.463
SCORE ([2]; IM serum sample no. 12498): + (Values >0.5 were considered positive (O.D. readings at 420 nm).)
SCORE ([2]; IM serum sample no. 12502): + (Values >0.5 were considered positive (O.D. readings at 420 nm).)
O.D. ([2]; IM serum sample no. 12502): 0.924
SCORE ([2]; IM serum sample no. 12587): + (Values >0.5 were considered positive (O.D. readings at 420 nm).)
O.D. ([2]; IM serum sample no. 12587): 0.571
SCORE ([2]; IM serum sample no. 12600): − (Values >0.5 were considered positive (O.D. readings at 420 nm).)
SCORE ([2]; IM serum sample no. 12611): − (Values >0.5 were considered positive (O.D. readings at 420 nm).)
O.D. ([2]; IM serum sample no. 12611): 0.259
SCORE ([2]; IM serum sample no. 12801): + (Values >0.5 were considered positive (O.D. readings at 420 nm).)
O.D. ([2]; IM serum sample no. 12801): 0.601
SCORE ([2]; IM serum sample no. 12828): − (Values >0.5 were considered positive (O.D. readings at 420 nm).)
O.D. ([2]; IM serum sample no. 12828): 0.375
SCORE ([2]; IM serum sample no. 12829): − (Values >0.5 were considered positive (O.D. readings at 420 nm).)
O.D. ([2]; IM serum sample no. 12829): 0.257
SCORE ([2]; IM serum sample no. 12836): + (Values >0.5 were considered positive (O.D. readings at 420 nm).)
SCORE ([2]; IM serum sample no. 12837): + (Values >0.5 were considered positive (O.D. readings at 420 nm).)
O.D. ([2]; IM serum sample no. 12837): 0.523
SCORE ([2]; IM serum sample no. 12840): − (Values >0.5 were considered positive (O.D. readings at 420 nm).)
O.D. ([2]; IM serum sample no. 12840): 0.488
SCORE ([2]; IM serum sample no. 12888): − (Values >0.5 were considered positive (O.D. readings at 420 nm).)
O.D. ([2]; IM serum sample no. 12888): 0.423
SCORE ([2]; IM serum sample no. 12889): + (Values >0.5 were considered positive (O.D. readings at 420 nm).)
O.D. ([2]; IM serum sample no. 12889): 0.574
SCORE ([2]; IM serum sample no. 12892): − (Values >0.5 were considered positive (O.D. readings at 420 nm).)
O.D. ([2]; IM serum sample no. 12892): 0.430
SCORE ([2]; IM serum sample no. 12893): + (Values >0.5 were considered positive (O.D. readings at 420 nm).)
O.D. ([2]; IM serum sample no. 12893): 0.592
SCORE ([2]; IM serum sample no. 12899): + (Values >0.5 were considered positive (O.D. readings at 420 nm).)
O.D. ([2]; IM serum sample no. 12899): 0.825
SCORE ([2]; IM serum sample no. 12900): − (Values >0.5 were considered positive (O.D. readings at 420 nm).)
O.D. ([2]; IM serum sample no. 12900): 0.264
SCORE ([2]; IM serum sample no. 13075): − (Values >0.5 were considered positive (O.D. readings at 420 nm).)
O.D. ([2]; IM serum sample no. 13075): 0.154
SCORE ([2]; IM serum sample no. 13419): + (Values >0.5 were considered positive (O.D. readings at 420 nm).)
O.D. ([2]; IM serum sample no. 13419): 0.655
SCORE ([2]; IM serum sample no. 13637): + (Values >0.5 were considered positive (O.D. readings at 420 nm).)
O.D. ([2]; IM serum sample no. 13637): 0.719
SCORE ([2]; IM serum sample no. 13769): + (Values >0.5 were considered positive (O.D. readings at 420 nm).)
O.D. ([2]; IM serum sample no. 13769): 0.757
SCORE ([2]; IM serum sample no. 13929): − (Values >0.5 were considered positive (O.D. readings at 420 nm).)
O.D. ([2]; IM serum sample no. 13929): 0.332
SCORE ([2]; IM serum sample no. 14043): − (Values >0.5 were considered positive (O.D. readings at 420 nm).)
O.D. ([2]; IM serum sample no. 14043): 0.095
SCORE ([2]; IM serum sample no. 14128): − (Values >0.5 were considered positive (O.D. readings at 420 nm).)
O.D. ([2]; IM serum sample no. 14128): 0.434
SCORE ([2]; IM serum sample no. 14131): − (Values >0.5 were considered positive (O.D. readings at 420 nm).)
O.D. ([2]; IM serum sample no. 14131): 0.182
